Results on three compounds are retold here after patent US20230263809A1, “FOOD SUPPLEMENT FOR ALZHEIMER” (FOLIUM BIOSCIENCES EUROPE B.V., priority 2019, published 2023).

For data set [1], the system named is neurological behaviours. The experiment in a line: Restoring neurological behaviours on uptake of phytosterols. Format: in vivo. The conditions noted are these: uptake of the phytosterol.
Data set [2] can be described thus: Side effects on uptake of phytosterols (compared with synthetic LXRα/β activators). It is filed as in vivo. The conditions noted are these: side effects caused normally by synthetic LXRα/β activators.
For data set [3], the system named is cholesterol absorption. The conditions noted are these: by competing with cholesterol absorption; cited from earlier work.
Data set [4] relates to Amyloid-β deposits. The conditions noted are these: in vivo; cited from earlier work.

For `C=CC(O)(CC[C@@H](C)[C@H]1CC[C@H]2[C@@H]3CC=C4C[C@@H](O)CC[C@]4(C)[C@H]3CC[C@]12C)C(C)C` (stereo partly drawn) [24(S)-Saringosterol], the restore neurological behaviours result in data set [1] is reported as “help restore neurological behaviours”. The side effects entry in data set [2] was “without registering any side effects”.
Regarding `C/C=C(\CC[C@@H](C)[C@H]1CC[C@H]2[C@@H]3CC=C4C[C@@H](O)CC[C@]4(C)[C@H]3CC[C@]12C)C(C)C` [Fucosterol], the restore neurological behaviours result in data set [1] was “help restore neurological behaviours”. The side effects entry in data set [2] was “without registering any side effects”. Also, in data set [3], the cholesterol lowering effect entry is “shows a cholesterol lowering effect”.
For the compound `CCCCCc1cc(O)c2c(c1)OC(C)(C)[C@@H]1CCC(C)=C[C@@H]21` [THC, Δ^9-tetrahydrocannabidiol], the “removal of the toxic clumps of Amyloid-β deposits in the brain” value in data set [4] is on record as “promote the removal of the toxic clumps of Amyloid-β deposits”.
